According to ChEMBL document CHEMBL1135223, “Peptidomimetics of efflux pump inhibitors potentiate the activity of levofloxacin in Pseudomonas aeruginosa” (2002):

Key:
Pseudomonas aeruginosa [1] = experiment: Minimum concentration required to reduce (potentiate) the MIC of levofloxacin of Pseudomonas aeruginosa by 8-folds; assay type: functional
Pseudomonas aeruginosa [2] = experiment: Tested for the minimum inhibitory concentration (MIC) against growth of PAM 1032, a strain of Pseudomonas aeruginosa; assay type: functional

Structure (SMILES) | MPC8 (Pseudomonas aeruginosa [1]) | MIC (Pseudomonas aeruginosa [2])
NCCC[C@@H](N)C(=O)N[C@H](CCc1ccccc1)c1nc(C(=O)Nc2cnc3ccccc3c2)co1.O=C(O)C(F)(F)F.O=C(O)C(F)(F)F | 5 µg/mL | 128 µg/mL
NCCC[C@@H](N)C(=O)N[C@H](CCc1ccccc1)C(=O)Nc1cnc2ccccc2c1 | 10 µg/mL | > 512 µg/mL
CC(C)CCN(CCC(=O)Nc1cnc2ccccc2c1)C(=O)[C@H](N)CCCN.O=C(O)C(F)(F)F.O=C(O)C(F)(F)F | 10 µg/mL | > 512 µg/mL
NCCC[C@@H](N)C(O)CN[C@H](CCc1ccccc1)c1nc(C(=O)Nc2cnc3ccccc3c2)co1.O=C(O)C(F)(F)F.O=C(O)C(F)(F)F (some centres undefined) | 5 µg/mL | 64 µg/mL
NCCC[C@@H](N)C(O)CN[C@H](CCc1ccccc1)C(=O)Nc1cnc2ccccc2c1.O=C(O)C(F)(F)F.O=C(O)C(F)(F)F (some centres undefined) | 2.5 µg/mL | 128 µg/mL
NCCC[C@@H](N)C(=O)N(CCC(=O)Nc1cnc2ccccc2c1)CCc1ccccc1.O=C(O)C(F)(F)F.O=C(O)C(F)(F)F | 10 µg/mL | > 512 µg/mL
Cc1ccc(CCN(CCC(=O)Nc2cnc3ccccc3c2)C(=O)[C@H](N)CCCN)cc1.O=C(O)C(F)(F)F.O=C(O)C(F)(F)F | 5 µg/mL | 256 µg/mL
COc1ccc(CCN(CCC(=O)Nc2cnc3ccccc3c2)C(=O)[C@H](N)CCCN)cc1.O=C(O)C(F)(F)F.O=C(O)C(F)(F)F | 10 µg/mL | 512 µg/mL
NCCC[C@@H](N)C(=O)N[C@H](CCc1ccccc1)C(O)c1nc2cc(Cl)ccc2o1.O=C(O)C(F)(F)F.O=C(O)C(F)(F)F (some centres undefined) | 5 µg/mL | 256 µg/mL
Cc1cc2nc(C(O)[C@@H](CCc3ccccc3)NC(=O)[C@H](N)CCCN)oc2cc1C.O=C(O)C(F)(F)F.O=C(O)C(F)(F)F (some centres undefined) | 2.5 µg/mL | 128 µg/mL
NCCC[C@@H](N)C(=O)N[C@H](CCc1ccccc1)COc1ccc(Cl)cc1.O=C(O)C(F)(F)F.O=C(O)C(F)(F)F | 5 µg/mL | 128 µg/mL
NCCC[C@@H](N)C(=O)N[C@H](CCc1ccccc1)C(O)c1nc2ccccc2s1.O=C(O)C(F)(F)F.O=C(O)C(F)(F)F (some centres undefined) | 20 µg/mL | 512 µg/mL
NCCC[C@@H](N)C(=O)N[C@H](CCc1ccccc1)C(O)c1nc2ccccc2[nH]1.O=C(O)C(F)(F)F.O=C(O)C(F)(F)F (some centres undefined) | 20 µg/mL | > 512 µg/mL
NCCC[C@@H](N)C(=O)N[C@H](CCc1ccccc1)c1nc(C(=O)Nc2ccc3ccccc3c2)co1.O=C(O)C(F)(F)F.O=C(O)C(F)(F)F | 2.5 µg/mL | 16 µg/mL
NCCC[C@@H](N)C(=O)N[C@H](CCc1ccccc1)CSc1ccc(Cl)cc1.O=C(O)C(F)(F)F.O=C(O)C(F)(F)F | 1.25 µg/mL | 64 µg/mL
Cc1cc2nc(C(O)[C@@H](CCc3ccccc3)NCC(O)[C@H](N)CCCN)oc2cc1C.O=C(O)C(F)(F)F.O=C(O)C(F)(F)F (some centres undefined) | 1.25 µg/mL | 128 µg/mL
NCCC[C@@H](N)C(=O)N[C@H](CCc1ccccc1)C(O)c1nc2ccccc2o1.O=C(O)C(F)(F)F.O=C(O)C(F)(F)F (some centres undefined) | 10 µg/mL | > 512 µg/mL
